Patent publication US5444174A, “16-membered macrolide derivative having sustained antibacterial activity in plasma, synthesis intermediate thereof and process for producing the same” (Meiji Seika Kaisha, Ltd., priority 1992, dated 1995)
Converted amounts (≈) assume the structure as drawn. Read-outs that look alike come from different tables or passages of the source.

What was measured:
B. catarrhalis W-0500 = assay: Antibacterial activity (MIC), agar plate dilution method; assay type: cell-based; conditions: Moraxella catarrhalis, read-out: Antibacterial activity (MIC)
Method: (§1) Antibacterial activities of the compounds of formula (I) are shown in Table 1 in terms of minimum inhibitory concentration (MIC).
(§2) Minimum inhibitory concentration was determined by the agar plate dilution method. Test strains were subjected to seed culture using Sensitivity test broth (STB, Nissui Pharmaceutical) except that the strains belonging to the genus Streptococcus, Branhamella and Haemophilus were cultured on blood agar plate. A 5 μl portion of cell suspension of the test strains having about 10^6 CFU/ml was inoculated into Sensitivity disk agar (SDA, Nissui Pharmaceutical) supplemented with 5% horse blood and incubated at 37° C. for 20 hours. Then, MIC was measured.

S. Pyogenes Cook = assay: as above; assay type: cell-based; conditions: Streptococcus pyogenes, 37° C., 20 hours, blood agar seed culture
Method: as §1, §2

[1] = system: Sta. epidermidis ATCC 14990; assay: as above; assay type: cell-based; conditions: Staphylococcus epidermidis, read-out: Antibacterial activity (MIC)
Method: as §1, §2

B. catarrhalis W-0506 = assay: as above; assay type: cell-based; conditions: Moraxella catarrhalis, read-out: Antibacterial activity (MIC)
Method: as §1, §2

Sta. aureus M126 = assay: as above; assay type: cell-based; conditions: Staphylococcus aureus, 37° C., 20 hours
Method: as §1, §2

[2] = system: Sta. aureus MS15009/pMS99; assay: as above; assay type: cell-based; conditions: Staphylococcus aureus, MS15009/PMS99, 20 h, read-out: Antibacterial activity (MIC)
Method: as §1, §2

M. luteus ATCC 9341 = assay: as above; assay type: cell-based; conditions: Micrococcus luteus, ATCC9341, 37° C., 20 hours
Method: as §1, §2

Sta. aureus M133 = assay: as above; assay type: cell-based; conditions: Staphylococcus aureus, read-out: Antibacterial activity (MIC)
Method: as §1, §2

S. pneumoniae Type 1 = assay: as above; assay type: cell-based; conditions: Streptococcus pneumoniae, TYPE1, 37° C., 20 hours, blood agar seed culture
Method: as §1, §2

[3] = system: Sta. aureus MS15009/pMS98; assay: as above; assay type: cell-based; conditions: Staphylococcus aureus, MS15009/PMS98, 20 h, read-out: Antibacterial activity (MIC)
Method: as §1, §2

S. pneumoniae IP692 = assay: as above; assay type: cell-based; conditions: Streptococcus pneumoniae, 37° C., 20 hours, blood agar seed culture
Method: as §1, §2

H. influenza 9334 = assay: as above; assay type: cell-based; conditions: 37° C., 20 hours, blood agar seed culture
Method: as §1, §2

Sta. aureus MS15027 = assay: as above; assay type: cell-based; conditions: Staphylococcus aureus, read-out: Antibacterial activity (MIC)
Method: as §1, §2

Ent. faecalis W-73 = assay: as above; assay type: cell-based; conditions: Enterococcus faecalis, W73, 37° C., 20 hours
Method: as §1, §2

Sta. aureus MS15026 = assay: as above; assay type: cell-based; conditions: Staphylococcus aureus, 37° C., 20 hours
Method: as §1, §2

E. coli NIHJ JC-2 = assay: as above; assay type: cell-based; conditions: Escherichia coli, NIHJJC2, 37° C., 20 hours
Method: as §1, §2

K. pneumoniae PC1602 = assay: as above; assay type: cell-based; conditions: Klebsiella pneumoniae, 37° C., 20 hours
Method: as §1, §2

Sta. aureus 209P JC-1 = assay: as above; assay type: cell-based; conditions: Staphylococcus aureus, 37° C., 20 hours
Method: as §1, §2

M. luteus = assay type: in vitro ADME
Method: Changes in the antibacterial activities of miokamycin (MOM) and the compound (13) were measured in the following manner.
Each test compound and 50 μl of a methanol solution (10,000 γ) were added to 950 μl of thawed rat plasma and the resulting mixture was incubated at 37° C. A 20 μl portion of the mixture was sampled after 0, 1, 3, 6 and 24 hours and added to 980 μl of 0.05M phosphate buffer (pH 7.2). A 20 μl portion of the sample solution was used to measure antibacterial activity against M. luteus. Separately, the calibration curve was prepared by using a methanol solution containing each test compound. The starting activity of each compound in the plasma was referred to as 100%.

gram-positive bacteria = assay: Antibacterial activities against gram-positive bacteria (summary of Table 1); assay type: cell-based; conditions: in words
Method: as §1, §2

[4] = W0500, 37° C., 20 hours, blood agar seed culture, B. catarrhalis W-0500
[5] = ATCC14990, 37° C., 20 hours, Sta. epidermidis ATCC 14990
[6] = 37° C., 20 hours, Sta. aureus M133
[7] = W0506, 37° C., 20 hours, blood agar seed culture, B. catarrhalis W-0506
[8] = 37° C., 20 hours, Sta. aureus MS15027

SMILES | MIC (B. catarrhalis W-0500; [4]) [µg/mL] | MIC (S. Pyogenes Cook) [µg/mL] | MIC [1, 5] [µg/mL] | MIC (Sta. aureus M126) [µg/mL] | MIC [2] [µg/mL] | MIC (M. luteus ATCC 9341) [µg/mL] | MIC (Sta. aureus M133; [6]) [µg/mL] | MIC (S. pneumoniae Type 1) [µg/mL] | MIC [3] [µg/mL] | MIC (S. pneumoniae IP692) [µg/mL] | MIC (H. influenza 9334) [µg/mL] | MIC (Sta. aureus MS15027; MS15027, 20 h) [µg/mL] | MIC (Ent. faecalis W-73) [µg/mL] | MIC (Sta. aureus MS15026) [µg/mL] | MIC (E. coli NIHJ JC-2) [µg/mL] | MIC (K. pneumoniae PC1602) [µg/mL] | MIC (Sta. aureus 209P JC-1) [µg/mL] | MIC (B. catarrhalis W-0506; [7]) [µg/mL] | MIC (Sta. aureus MS15027; [8]) [µg/mL] | further results
CCO[C@H]1[C@H](C)O[C@@H](O[C@H]2[C@H](N(C)C)[C@@H](O)[C@H](O[C@H]3[C@@H](CC=O)C[C@@H](C)C(=O)/C=C/C=C/C[C@@H](C)OC(=O)C[C@@H](OC(=O)CC)[C@@H]3OC)O[C@@H]2C)C[C@@]1(C)OC [Compound (13)] | 3.13 (≈ 3.92 µM) | 0.78 (≈ 0.977 µM) | 12.5 (≈ 15.7 µM) | > 100 | > 100 | 0.78 (≈ 0.977 µM) | 3.13 (≈ 3.92 µM) | 1.56 (≈ 1.95 µM) | 6.25 (≈ 7.83 µM) | 1.56 (≈ 1.95 µM) | 100 (≈ 125 µM) | 6.25 (≈ 7.83 µM) | 3.13 (≈ 3.92 µM) | > 100 | > 100 | > 100 | 3.13 (≈ 3.92 µM) |  |  | MIC (B. catarrhalis W-0506; W0506, 20 h): 6.25 µg/mL (≈ 7.83 µM); antibacterial activity in rat plasma over time (M. luteus): antibacterial activity sustaining for a prolonged period of time in rat plasma; degree of the decrease in the antibacterial activity in plasma (M. luteus): clearly lower degree of the decrease in the antibacterial activity in plasma, compared with miokamycin; metabolism at the mycarose moiety in plasma (M. luteus): hardly metabolized at the mycarose moiety; antibacterial activities against gram-positive bacteria (gram-positive bacteria): have antibacterial activities against gram-positive bacteria
CCC(=O)O[C@@H]1CC(=O)O[C@H](C)C/C=C/C=C/C(=O)[C@H](C)C[C@H](CC=O)[C@H](O[C@@H]2O[C@H](C)[C@@H](O[C@H]3C[C@@](C)(OC)[C@@H](OCCCC(C)C)[C@H](C)O3)[C@H](N(C)C)[C@H]2O)[C@H]1OC [Compound (43)] | 1.56 (≈ 1.83 µM) | 0.05 (≈ 0.0585 µM) | 1.56 (≈ 1.83 µM) | > 100 | > 100 | 0.05 (≈ 0.0585 µM) | 1.56 (≈ 1.83 µM) | 0.2 (≈ 0.234 µM) | 0.78 (≈ 0.913 µM) | 0.2 (≈ 0.234 µM) | 12.5 (≈ 14.6 µM) |  | 3.13 (≈ 3.66 µM) | > 100 | > 100 | > 100 | 0.39 (≈ 0.457 µM) | 1.56 (≈ 1.83 µM) | 1.56 (≈ 1.83 µM) | 
CCC(=O)O[C@@H]1CC(=O)O[C@H](C)C/C=C/C=C/C(=O)[C@H](C)C[C@H](CC=O)[C@H](O[C@@H]2O[C@H](C)[C@@H](O[C@H]3C[C@@](C)(OC)[C@@H](OCC=C(C)C)[C@H](C)O3)[C@H](N(C)C)[C@H]2O)[C@H]1OC [Compound (40)] | 1.56 (≈ 1.86 µM) | 0.2 (≈ 0.239 µM) | 3.13 (≈ 3.73 µM) | > 100 | > 100 | 0.1 (≈ 0.119 µM) | 1.56 (≈ 1.86 µM) | 0.39 (≈ 0.465 µM) | 0.78 (≈ 0.931 µM) | 0.39 (≈ 0.465 µM) | 12.5 (≈ 14.9 µM) |  | 3.13 (≈ 3.73 µM) | > 100 | > 100 | > 100 | 0.78 (≈ 0.931 µM) | 1.56 (≈ 1.86 µM) | 1.56 (≈ 1.86 µM) | 
CCCCO[C@H]1[C@H](C)O[C@@H](O[C@H]2[C@H](N(C)C)[C@@H](O)[C@H](O[C@H]3[C@@H](CC=O)C[C@@H](C)C(=O)/C=C/C=C/C[C@@H](C)OC(=O)C[C@@H](OC(=O)CC)[C@@H]3OC)O[C@@H]2C)C[C@@]1(C)OC [Compound (41)] | 0.78 (≈ 0.944 µM) | 0.1 (≈ 0.121 µM) | 1.56 (≈ 1.89 µM) | > 100 | > 100 | 0.05 (≈ 0.0605 µM) | 0.78 (≈ 0.944 µM) | 0.2 (≈ 0.242 µM) | 0.39 (≈ 0.472 µM) | 0.1 (≈ 0.121 µM) | 6.25 (≈ 7.57 µM) |  | 3.13 (≈ 3.79 µM) | > 100 | > 100 | > 100 | 0.2 (≈ 0.242 µM) | 0.78 (≈ 0.944 µM) | 0.78 (≈ 0.944 µM) | antibacterial activities compared with miokamycin (gram-positive bacteria; vs miokamycin): excellent antibacterial activities exceeding that of miokamycin
C=CCO[C@H]1[C@H](C)O[C@@H](O[C@H]2[C@H](N(C)C)[C@@H](O)[C@H](O[C@H]3[C@@H](CC=O)C[C@@H](C)C(=O)/C=C/C=C/C[C@@H](C)OC(=O)C[C@@H](OC(=O)CC)[C@@H]3OC)O[C@@H]2C)C[C@@]1(C)OC [Compound (39)] |  | 1.56 (≈ 1.93 µM) | 25 (≈ 30.9 µM) | > 100 | > 100 | 0.39 (≈ 0.481 µM) |  | 1.56 (≈ 1.93 µM) | 12.5 (≈ 15.4 µM) | 1.56 (≈ 1.93 µM) |  | 12.5 (≈ 15.4 µM) | 6.25 (≈ 7.72 µM) | > 100 | > 100 | > 100 | 3.13 (≈ 3.86 µM) | 6.25 (≈ 7.72 µM) |  | MIC (B. catarrhalis W-0500; W0500, 20 h): 12.5 µg/mL (≈ 15.4 µM); MIC (Sta. aureus M133; M133, 20 h): 12.5 µg/mL (≈ 15.4 µM)
CCCCCCO[C@H]1[C@H](C)O[C@@H](O[C@H]2[C@H](N(C)C)[C@@H](O)[C@H](O[C@H]3[C@@H](CC=O)C[C@@H](C)C(=O)/C=C/C=C/C[C@@H](C)OC(=O)C[C@@H](OC(=O)CC)[C@@H]3OC)O[C@@H]2C)C[C@@]1(C)OC [Compound (42)] |  | 0.2 (≈ 0.234 µM) |  | > 100 | > 100 | 0.1 (≈ 0.117 µM) |  | 0.2 (≈ 0.234 µM) | 1.56 (≈ 1.83 µM) | 0.2 (≈ 0.234 µM) | 12.5 (≈ 14.6 µM) | 1.56 (≈ 1.83 µM) | 6.25 (≈ 7.32 µM) | > 100 | > 100 | > 100 | 0.78 (≈ 0.913 µM) |  |  | MIC (B. catarrhalis W-0500; W0500, 20 h): 1.56 µg/mL (≈ 1.83 µM); MIC ([1]; ATCC14990, 20 h): 1.56 µg/mL (≈ 1.83 µM); MIC (B. catarrhalis W-0506; W0506, 20 h): 1.56 µg/mL (≈ 1.83 µM); MIC (Sta. aureus M133; M133, 20 h): 1.56 µg/mL (≈ 1.83 µM)
CCC(=O)O[C@@H]1CC(=O)O[C@H](C)C/C=C/C=C/C(=O)[C@H](C)C[C@H](CC=O)[C@H](O[C@@H]2O[C@H](C)[C@@H](O[C@H]3C[C@@](C)(OC)[C@@H](OCc4ccccc4)[C@H](C)O3)[C@H](N(C)C)[C@H]2O)[C@H]1OC [Compound (44)] | 1.56 (≈ 1.81 µM) | 0.2 (≈ 0.233 µM) | 3.13 (≈ 3.64 µM) | > 100 | > 100 | 0.1 (≈ 0.116 µM) | 1.56 (≈ 1.81 µM) | 0.2 (≈ 0.233 µM) | 0.78 (≈ 0.907 µM) | 0.2 (≈ 0.233 µM) | 6.25 (≈ 7.27 µM) |  | 1.56 (≈ 1.81 µM) | > 100 | > 100 | > 100 | 0.2 (≈ 0.233 µM) | 1.56 (≈ 1.81 µM) | 1.56 (≈ 1.81 µM) | 
